Measurements reported in PMC11198769, “Enhancement of transcription efficiency by TAR-Tat system increases the functional expression of human olfactory receptors” (PLOS ONE, 2024).

Legend:
Test in all cases: hOR assay (GloSensor cAMP luciferase), dose-response
Format in all cases: cell-based
OR10C1 = biological target: T1, OR10C1 (Homo sapiens, UniProt Q96KK4); conditions: OR10C1, with or without the TAR-Tat system
T1 construct: Lucy tag (N); expressed in transfected cells; host or cells: Flp-In T-REx-293 cells stably expressing RTP1S, Gαolf and Ric8-b
T1 sequence (Q96KK4 1-312): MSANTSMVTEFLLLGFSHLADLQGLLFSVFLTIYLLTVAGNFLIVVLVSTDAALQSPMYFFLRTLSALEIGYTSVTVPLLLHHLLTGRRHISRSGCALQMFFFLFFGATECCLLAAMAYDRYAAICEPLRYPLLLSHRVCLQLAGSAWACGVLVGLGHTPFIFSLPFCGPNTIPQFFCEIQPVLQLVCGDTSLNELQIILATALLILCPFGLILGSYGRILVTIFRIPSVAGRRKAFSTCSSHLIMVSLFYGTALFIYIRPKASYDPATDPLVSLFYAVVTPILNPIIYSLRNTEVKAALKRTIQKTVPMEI
Method: (§1) Flp-In T-REx-293 cells stably expressing accessory proteins (RTP1S, Gαolf, and Ric8-b) were established using the Flp-In T-REx system. Accessory proteins-expressing cells were maintained in high-glucose Dulbecco’s modified Eagle medium (Sigma-Aldrich) containing 10% fetal bovine serum (Biowest) and 1% antibiotic–antimycotic (Nacalai tesque) at 37°C with 5% CO2.
(§2) The GloSensor™ Technology (Promega) was used for the luciferase assay of the hOR response. As the negative control, cells that were transfected by the pBApo-CMV neo vector and pHEK293 Ultra Expression Vector I were used as mock cells. hOR/pHEK and hOR/pBApo (50 ng/well) were transfected into the accessory proteins-expressing cell line (40000 cells/well) using Lipofectamine 2000 (Thermo Fisher Scientific) (400 nL/well) along with pGlosensor™-22F cAMP biosensor plasmid (Promega) (50 ng/well) in a 96-well plate. At 28 h posttransfection, the cells were washed with an assay buffer (140 mM NaCl, 10 mM HEPES, 5 mM KCl, 1 mM CaCl2・2H2O, 10 mM D-glucose, pH 7.5) and replaced with the assay buffer (50 μL/well) containing 2% GloSensor cAMP substrate and preincubated for 1 h at 25°C. Then, the assay buffer was added (130 μL/well). After 10 min of equilibration, the luminescence was measured (L0). Odorants diluted in 10% DMSO/assay buffer were treated (20 μL/well). After 9 min, the luminescence was measured (L9min). First, all the L9min values were subtracted by the L0 value (ΔL) and divided by the L0 value (ΔL/L0). The concentration range of the odorants was different for each odorant, but the minimum was 0.01 μM and the maximum was 3 mM. For all hORs, luciferase assays with hOR/pBApo and hOR/pHEK were conducted in the same 96-well plate each time, and luminescence was normalized to a maximum value of 100. Dose–response curve images were graphed using the Graph Pad Prism 9 software (Graph Pad Software).

OR10H3 = biological target: T2, OR10H3 (Homo sapiens, UniProt O60404); conditions: OR10H3, with or without the TAR-Tat system
T2 construct: Lucy tag (N); expressed in transfected cells; host or cells: Flp-In T-REx-293 cells stably expressing RTP1S, Gαolf and Ric8-b
T2 sequence (O60404 1-316): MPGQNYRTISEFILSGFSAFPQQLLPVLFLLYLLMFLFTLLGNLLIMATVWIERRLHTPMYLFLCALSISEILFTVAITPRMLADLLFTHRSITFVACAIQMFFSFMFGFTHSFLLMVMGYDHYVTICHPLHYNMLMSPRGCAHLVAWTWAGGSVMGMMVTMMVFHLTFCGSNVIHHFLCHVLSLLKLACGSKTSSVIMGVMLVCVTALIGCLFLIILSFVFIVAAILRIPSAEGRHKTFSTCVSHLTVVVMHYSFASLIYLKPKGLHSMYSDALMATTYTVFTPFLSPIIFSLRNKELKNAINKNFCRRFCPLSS
Method: as §1, §2

OR1A1 = biological target: T3, OR1A1 (Homo sapiens, UniProt Q9P1Q5)
T3 construct: Lucy tag (N); FLAG (N); Rho tag (N); expressed in transfected cells; host or cells: Flp-In T-REx-293 cells stably expressing RTP1S, Gαolf and Ric8-b
T3 sequence (Q9P1Q5 1-309): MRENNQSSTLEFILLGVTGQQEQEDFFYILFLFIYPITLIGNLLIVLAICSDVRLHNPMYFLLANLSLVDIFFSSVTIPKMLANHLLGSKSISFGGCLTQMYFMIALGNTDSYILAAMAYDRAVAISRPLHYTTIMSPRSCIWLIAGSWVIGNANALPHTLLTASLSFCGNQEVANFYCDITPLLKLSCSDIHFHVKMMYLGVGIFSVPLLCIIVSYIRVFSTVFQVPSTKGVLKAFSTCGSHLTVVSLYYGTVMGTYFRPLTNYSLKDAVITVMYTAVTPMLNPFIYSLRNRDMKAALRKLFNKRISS
Method: as §1, §2

OR2B3 = biological target: T4, OR2B3 (Homo sapiens, UniProt O76000); conditions: OR2B3, with or without the TAR-Tat system
T4 construct: Lucy tag (N); FLAG (N); Rho tag (N); expressed in transfected cells; host or cells: Flp-In T-REx-293 cells stably expressing RTP1S, Gαolf and Ric8-b
T4 sequence (O76000 1-313): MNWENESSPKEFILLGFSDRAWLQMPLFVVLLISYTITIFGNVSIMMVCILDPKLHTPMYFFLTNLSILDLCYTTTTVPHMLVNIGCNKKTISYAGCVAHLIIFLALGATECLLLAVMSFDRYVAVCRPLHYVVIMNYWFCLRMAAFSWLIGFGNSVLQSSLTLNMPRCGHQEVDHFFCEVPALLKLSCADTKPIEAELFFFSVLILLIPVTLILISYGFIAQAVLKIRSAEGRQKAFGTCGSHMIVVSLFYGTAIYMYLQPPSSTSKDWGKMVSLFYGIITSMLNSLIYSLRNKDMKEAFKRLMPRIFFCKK
Method: as §1, §2

OR4K5 = biological target: T5, OR4K5 (Homo sapiens, UniProt Q8NGD3); conditions: OR4K5, with or without the TAR-Tat system
T5 construct: Lucy tag (N); FLAG (N); Rho tag (N); expressed in transfected cells; host or cells: Flp-In T-REx-293 cells stably expressing RTP1S, Gαolf and Ric8-b
T5 sequence (Q8NGD3 1-323): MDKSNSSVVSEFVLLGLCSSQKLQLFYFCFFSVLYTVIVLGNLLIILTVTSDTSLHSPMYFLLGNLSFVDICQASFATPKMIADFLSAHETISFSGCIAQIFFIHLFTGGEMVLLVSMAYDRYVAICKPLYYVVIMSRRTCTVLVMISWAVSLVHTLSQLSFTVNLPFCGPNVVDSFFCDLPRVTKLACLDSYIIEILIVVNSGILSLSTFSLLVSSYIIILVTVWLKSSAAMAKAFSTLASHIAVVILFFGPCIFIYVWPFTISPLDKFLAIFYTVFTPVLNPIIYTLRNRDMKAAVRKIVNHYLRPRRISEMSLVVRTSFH
Method: as §1, §2

concentration-dependent response to n-hexanal (OR10C1): no concentration-dependent response
concentration-dependent response to n-hexanal (OR10H3): no concentration-dependent response
EC50 (OR1A1; OR1A1/pHEK (with TAR-Tat system), read-out: EC50 of n-hexanal concentration-response relationship): 995 µM
concentration-dependent response to n-hexanal (OR2B3): no concentration-dependent response
concentration-dependent response to n-hexanal (OR4K5): no concentration-dependent response
Structure (SMILES): CCCCCC=O [n-hexanal]
concentration-dependent response to n-hexanal (OR1A1; OR1A1, with and without the TAR-Tat system): concentration-dependent responses only with the TAR-Tat system
